Data reported in patent US20190231768A1, “P[…] TREATING DRUG INDUCED DYSKINESIAS” (PRILENIA THERAPEUTICS DEVELOPMENT LTD., priority 2017, published 2019).
Like-named read-outs stand apart in the source and are kept apart here.

Columns and labels:
[1] = biological target: T1, σ1R (Rattus norvegicus, UniProt Q9R0C9); assay: in vivo; details: po, read-out: % σ1R occupancy
Excerpt: (§1) NHP σ1R occupancy data are extrapolated from in vitro binding investigations with 3H-fluspidine, known and specific σ1R tracer, against human σ1R.

[2] = test system: human subject afflicted with LID; details: 45, 90, 135 or 180 mg/day oral, add-on to amantadine
[3] = biological target: T1, σ1R; details: 3 mg/kg PO; cited from earlier work
[4] = test system: D2R; details: for % D2R occupancy: NHP, based on 11C-raclopride PET
Excerpt: as §1

[5] = biological target: D2R (Rattus norvegicus, UniProt P61169); details: cited from earlier work
D2R (Rattus norvegicus, UniProt P61169), sequence (P61169 whole entry): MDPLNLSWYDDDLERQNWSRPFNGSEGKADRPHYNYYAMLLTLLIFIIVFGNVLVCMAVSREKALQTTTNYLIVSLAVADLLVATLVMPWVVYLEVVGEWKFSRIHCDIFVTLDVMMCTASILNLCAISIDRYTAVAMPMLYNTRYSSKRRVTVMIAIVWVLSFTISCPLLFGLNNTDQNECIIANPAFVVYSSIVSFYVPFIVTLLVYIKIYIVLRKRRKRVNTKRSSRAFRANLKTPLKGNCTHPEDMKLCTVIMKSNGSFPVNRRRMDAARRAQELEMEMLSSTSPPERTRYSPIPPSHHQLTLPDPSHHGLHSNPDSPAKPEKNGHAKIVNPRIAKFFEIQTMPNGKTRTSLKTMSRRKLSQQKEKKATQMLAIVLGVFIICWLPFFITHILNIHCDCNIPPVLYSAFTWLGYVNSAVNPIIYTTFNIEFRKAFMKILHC

[6] = test system: patients with Huntington's Disease (HD); details: 45 mg twice daily (90 mg/day); cited from earlier work
[7] = test system: MPTP-lesioned macaques with L-DOPA-induced dyskinesia
Method: The study was conducted in two separate experiments. […] Animals: Eight cynomolgus monkeys (Macaca fascicularis, 8-14 years of age, 3.0-4.8 kg, Suzhou Xishan-Zhongke Laboratory Animal Company, PRC) were used in this study. Fresh fruit, primate pellets and water were available ad libitum other than at times of overnight fasting (from 5 pm) prior to days of behavioral assessment. The housing rooms were subject to a 12-hour light-dark cycle (lights on 7 a.m.), 20-25° C. in a room containing only animals of the same sex.
MPTP administration and development of motor complications: Animals received once-daily subcutaneous injection of MPTP (0.2 mg/kg in 0.9% sterile-saline, Sigma-Aldrich, Oakville, ON, Canada) for 8-30 days. A parkinsonian syndrome was then allowed to develop over at least a 90-day period, during which time additional MPTP administrations were given as necessary, until animals reached moderate to marked levels of disability. […] MPTP lesions were allowed to stabilize for a minimum of a further 60-day prior to commencing induction of L-DOPA-induced motor complications. LID, including both choreiform and dystonic dyskinesia, were evoked by chronic L-DOPA treatment (25 mg/kg, Madopar™, Roche, L-DOPA: benserazide, ratio 4:1) for at least 4-months. During this same period animals were acclimatized to the experimental setting, trained to provide blood samples (while restrained in chair) and to receive administration of treatment by oral, intravenous or subcutaneous routes.
The response to this dose of L-DOPA was assessed to ensure stability and reproducibility within each animal on successive L-DOPA administrations.
For both studies, on the day before behavioral observations, food was removed overnight, from 5 p.m. On days of behavioral assessment, treatments were administered to the animals in their home cages. Animals were then transferred to an observation cage for behavioral assessment. […] The effects of treatments on parkinsonian disability, dyskinesia, duration and quality of anti-parkinsonian benefit (on-time) and activity were assessed and analyzed for a period of 6 hours (h).
Assessment of parkinsonian disability, dyskinesia (chorea and dystonia) and activity: Animals were transferred to individual observation cages (1.5×1.0×1.1 m) and their behavior recorded on HD-video. Rating scales for parkinsonism and dyskinesia adapted from their clinical counterparts (UPDRS pt. III and UDysRS respectively) were used to assess recordings via post-hoc analysis by a movement disorders neurologist blinded to treatment. […] Dyskinesia, representative of the maximum of either chorea or dystonia was scored as 0—absent, 1—mild, 2—moderate, 3—marked or 4—severe. Parkinsonian disability and dyskinesia were assessed for 5-min every 10-min, the score given being most representative of each 5-min observation period. Scores were summed for each hour for time-course analyses and across the entire observation period (0-6 h).
The duration of anti-parkinsonian action, on-time, was defined as the number of minutes for which the bradykinesia score was zero. In addition, the duration of on-time associated with dyskinesia of varying severity was calculated as follows. On-time with disabling dyskinesia, ‘bad’-on-time was calculated the number of minutes for which the bradykinesia score was zero while the dyskinesia score was greater than 2. Meanwhile, on-time without disabling dyskinesia, ‘good’-on-time represents the number of minutes for which the bradykinesia score is zero while the dyskinesia score is 2 or less.
Statistical analyses: Data derived from assessment of duration and quality of on-time were plotted as mean±s.e.m. […] Data for measures of parkinsonian disability and dyskinesia were graphed, where appropriate, as median scores alone (time course) or box and whisker plots (cumulated totals). Time course data for parkinsonian disability and dyskinesia were first ranked within each animal across all treatments using Excel's RANKAVG function. […]

[8] = test system: 6-OHDA-lesioned rat; details: 25 μmole/kg (8 mg/kg); cited from earlier work
[9] = biological target: dopamine-2 receptor (D2R) (Homo sapiens, UniProt P14416); details: 90 mg
dopamine-2 receptor (D2R), sequence (P14416 whole entry): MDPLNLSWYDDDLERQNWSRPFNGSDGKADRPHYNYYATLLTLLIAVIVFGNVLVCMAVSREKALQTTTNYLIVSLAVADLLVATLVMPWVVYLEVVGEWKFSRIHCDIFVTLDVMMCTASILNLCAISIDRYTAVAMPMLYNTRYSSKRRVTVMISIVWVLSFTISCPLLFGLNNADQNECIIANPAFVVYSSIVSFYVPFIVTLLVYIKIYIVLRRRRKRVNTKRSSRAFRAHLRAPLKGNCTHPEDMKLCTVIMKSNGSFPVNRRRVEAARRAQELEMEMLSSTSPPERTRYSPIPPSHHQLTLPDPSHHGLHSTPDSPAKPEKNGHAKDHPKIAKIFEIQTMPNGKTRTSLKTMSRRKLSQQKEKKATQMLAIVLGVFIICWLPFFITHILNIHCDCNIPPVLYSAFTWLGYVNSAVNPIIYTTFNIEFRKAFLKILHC
Excerpt: (§2) The study consisted of a screening period of up to 8 weeks prior to first dosing of tracer, including a Ti three-dimensional magnetization-prepared rapid acquisition gradient echo (MPRAGE 3D) magnetic resonance imaging (MRI) scan (visit 1), a study period of up to 4 weeks (including visits 2 and 3), and a follow-up visit (visit 4). […] Each dose cohort comprised up to 4 subjects. Although every subject of each dose cohort was expected to receive the same dose, it was also possible to change the dose level within a cohort due to the adaptive design of the study.

[10] = biological target: sigma-1 receptor (S1R) (Homo sapiens, UniProt Q99720)
sigma-1 receptor (S1R), sequence (Q99720 whole entry): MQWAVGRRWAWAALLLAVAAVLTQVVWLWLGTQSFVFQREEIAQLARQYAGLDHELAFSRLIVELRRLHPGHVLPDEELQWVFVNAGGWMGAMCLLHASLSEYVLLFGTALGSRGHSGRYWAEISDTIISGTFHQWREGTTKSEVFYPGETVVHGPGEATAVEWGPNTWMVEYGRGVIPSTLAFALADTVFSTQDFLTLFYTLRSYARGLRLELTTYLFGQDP
Excerpt: as §2

[11] = study 2, 30 mg/kg, cumulated 0-2 h

T1 sequence (Q9R0C9 whole entry): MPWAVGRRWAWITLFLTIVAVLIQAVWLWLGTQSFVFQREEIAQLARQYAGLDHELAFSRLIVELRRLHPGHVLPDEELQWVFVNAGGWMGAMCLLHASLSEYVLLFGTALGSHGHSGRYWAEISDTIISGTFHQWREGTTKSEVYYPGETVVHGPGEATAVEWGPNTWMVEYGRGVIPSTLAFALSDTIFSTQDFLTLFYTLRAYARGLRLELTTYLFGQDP

For `CCCN1CCC(c2cccc(S(C)(=O)=O)c2)CC1` [pridopidine, 4-(3-(methylsulfonyl)phenyl)-1-propylpiperidine], the receptor occupancy at 60 mg/kg [1] is listed as greater than 85%, the symptoms of dyskinesia [2] is listed as “effective (provides at least an additive effect or more than an additive effect)” and the “% σ1R occupancy” value [3] is listed as 60%. For the same molecule, the “% D2R occupancy” value ([4]; 7 mg/kg PO) was less than 15%, the “% D2R occupancy” value ([4]; 15 mg/kg PO) was 15% and the “% D2R occupancy” value ([4]; 20 mg/kg PO) was 25%. For the same molecule, the “% D2R occupancy” value ([4]; 30 mg/kg PO) was 40%, the “occupancy of low affinity dopamine receptors (expected)” value ([4]; high, effective dose (30 mg/kg, or 20 mg/kg in study 1)) was “about 40%” and the “occupancy of low affinity dopamine receptors (expected)” value ([4]; low, ineffective doses (7 and 15 mg/kg (study 1), 20 mg/kg in study 2)) was “about 10%”. For the same molecule, the D2R-occupancy ([4]; macaques, effective doses (20 to 30 mg/kg)) was 25-40%, the “% D2R occupancy” value ([5]; 3 mg/kg PO) was 0% and the “% D2R occupancy” value ([5]; 15 mg/kg PO) was 0%. The “motor function, UHDRS Total Motor Score (TMS)” value [6] was “significantly improved motor function”, the “Dyskinesia (time course), significance cf. LDh-vehicle” value ([7]; 20 mg/kg + LDh, hr 1) was “* (*/**/*** represents P < 0.05, P < 0.01 or P < 0.001 cf. vehicle-treatment)” and the “L-DOPA induced Dystonia (time course), significance cf. LDh-vehicle” value ([7]; 20 mg/kg + LDh, hr 1) was “* (*/**/*** represents P < 0.05, P < 0.01 or P < 0.001 cf. vehicle-treatment)”. For the same molecule, the “Dyskinesia (time course), significance cf. LDh-vehicle” value ([7]; 30 mg/kg + LDh, hr 1) was “** (*/**/*** represents P < 0.05, P < 0.01 or P < 0.001 cf. vehicle-treatment)”, the “L-DOPA induced Dystonia (time course), significance cf. LDh-vehicle” value ([7]; 30 mg/kg + LDh, hr 1) was “** (*/**/*** represents P < 0.05, P < 0.01 or P < 0.001 cf. vehicle-treatment)” and the “Dyskinesia (time course), significance cf. LDh-vehicle” value ([7]; 30 mg/kg + LDh, hr 2) was “*** (*/**/*** represents P < 0.05, P < 0.01 or P < 0.001 cf. vehicle-treatment)”. For the same molecule, the “L-DOPA induced Dystonia (time course), significance cf. LDh-vehicle” value ([7]; 30 mg/kg + LDh, hr 2) was “*** (*/**/*** represents P < 0.05, P < 0.01 or P < 0.001 cf. vehicle-treatment)”, the “L-DOPA induced Dystonia (time course), significance cf. LDh-vehicle” value ([7]; 30 mg/kg + LDh, hr 3) was “* (*/**/*** represents P < 0.05, P < 0.01 or P < 0.001 cf. vehicle-treatment)” and the LID ([7]; MPTP-lesioned NHPs, high-dose) was “significant and meaningful decrease”. The LID ([7]; PD NHP model, low doses) was “ineffective”, the “total duration of on-time or extent of anti-parkinsonian benefit of L-DOPA” value ([7]; study 1) was “absence of any change” and the “anti-parkinsonian benefit afforded by L-DOPA” value ([7]; study 1, 7 mg/kg, first two hours of observation) was “modest decrease”. The “total duration of on-time” value ([7]; study 2, 0-6 h) was “no change”, the “median level of dyskinesia” value ([7]; study 2, 20 mg/kg, first hour) was “between moderate and marked” and the “median level of dystonia” value ([7]; study 2, 20 mg/kg, first hour) was “between moderate and marked”. For the same molecule, the “'bad' quality on-time” value ([7]; study 2, 30 mg/kg) was 66 min, the “decrease in 'bad' quality on-time compared to vehicle” value ([7]; study 2, 30 mg/kg) was 60% and the “median level of dyskinesia” value [7, 11] was “below mild (non-disabling)”. For the same molecule, the “median level of dystonia” value [7, 11] was “below mild (non-disabling)”, the “reduction of median levels of dyskinesia compared to LDh-vehicle” value [7, 11] was 71% and the “reduction of median levels of dystonia compared to LDh-vehicle” value [7, 11] was 72%. For the same molecule, the “median level of dyskinesia” value ([7]; study 2, 30 mg/kg, first and second hours) was “mild to moderate”, the “median level of dystonia” value ([7]; study 2, 30 mg/kg, first to third hours) was “mild to moderate” and the “proportion of on-time of 'good' quality cf. LDh-vehicle” value ([7]; study 2, any dose) was “no difference”. The “L-DOPA-induced sensitization of contraversive-rotation” value [8] was “decreased”, the “anti-parkinsonian benefit of L-DOPA” value [8] was “no decrease” and the D2R blockage [9] was 3%. The “difference in drug-induced S1R occupancy between HV and HD patients” value ([10]; 90 mg) was “no differences”, the S1R occupancy ([10]; healthy volunteers, single oral dose 45 mg, 2 h after dosing) was roughly 100% and the S1R occupancy ([10]; healthy volunteers, single oral dose 90 mg, 2 h after dosing) was roughly 100%. The S1R occupancy ([10]; single oral dose 1 mg) was “approximately 40%”.
